Reference: US6384208B1, “Sequence directed DNA binding molecules compositions and methods” (Genelabs Technologies, Inc., priority 1991, dated 2002)
“Also recorded” adds a separate entry of the source. Where two headings read alike, the source gives them in different places. Starred links: 1 amine or outer side, 2 acyl side, 3 side chain; linkers in the order of their positions; H or OH if unused. Positions of bridges follow the written chain, without caps; N, C: chain ends. Non-standard residues stand in square brackets, D forms with d. Residues, ends and D or L forms follow the SMILES beside them. Chains are numbered I, II in the order given. Actinocin(9to1) = Cc1c2oc3c(C)ccc(C(=O)[*:1])c3nc-2c(C(=O)[*:2])c(N)c1=O; NMeV = CN[C@H](C(=O)O)C(C)C; Sar = CNCC(=O)O

How the values were obtained:
[1] = tested on: 256 different 4 bp sequences flanking the UL9 recognition site; type: binding, Herpes Simplex Virus
[2] = tested on: oligonucleotides containing the screening sequence (SEQ ID NO:601) flanked by a test sequence (SEQ ID NO:605 to SEQ ID NO:613); type: binding, Herpes Simplex Virus
DNA = conditions: cited from earlier work; for published binding constant: bulk genomic DNA (average)

Q: Which dinucleotide preference [1] does the source give for `Cc1c2oc3c(C)ccc(C(=O)N[C@@H]4C(=O)N[C@H](C(C)C)C(=O)N5CCC[C@H]5C(=O)N(C)CC(=O)N(C)[C@@H](C(C)C)C(=O)O[C@@H]4C)c3nc-2c(C(=O)N[C@@H]2C(=O)N[C@H](C(C)C)C(=O)N3CCC[C@H]3C(=O)N(C)CC(=O)N(C)[C@@H](C(C)C)C(=O)O[C@@H]2C)c(N)c1=O` [actinomycin D, Actinomycin D] (I: T[dV]P[Sar][NMeV] / II: T[dV]P[Sar][NMeV]; ester I:1-I:C, II:1-II:C; linker I:N-II:N via Actinocin(9to1)) here?
A: GC, particularly in the N1N2 position

Q: And the “mean r % score for all oligonucleotides” value [1]?
A: 67%

Q: What about the “overall sequence preference in the screen of all 256 sequences” value [1] of the same compound?
A: preference for binding GC-rich sequences; also recorded: prefers GC-rich sequences over AT-rich sequences

Q: What about the “position effect of a single base in the test site” value [1] of the same compound?
A: a single base in any particular position has little impact on the binding

Q: What about the sequence binding preference [1] of the same compound?
A: a preference for binding GC-rich oligonucleotides has been observed; also recorded: this binding preference is even more apparent

Q: And the “test sequences at which UL9 binding to the screening sequence is preferentially disrupted” value (shortened to “test sequences at which UL9 binding”) [2]?
A: preferentially disrupts the binding of UL9-COOH to the oligonucleotides UL9 CCCG (SEQ ID NO:605) and UL9 GGGC (SEQ ID NO:606); also recorded: preferentially disrupts the binding of UL9 to the oligonucleotides UL9 CCCG and UL9 GGGC

Q: What about the “reported preferred DNA binding sequence” value (DNA; literature) of the same compound?
A: dGdC

Q: Which “reported preferred DNA binding sequence” value (DNA; literature) does the source give for `CS[C@H]1SC[C@H]2C(=O)N(C)[C@@H](C(C)C)C(=O)OC[C@@H](NC(=O)c3cnc4ccccc4n3)C(=O)N[C@@H](C)C(=O)N(C)[C@@H]1C(=O)N(C)[C@@H](C(C)C)C(=O)OC[C@@H](NC(=O)c1cnc3ccccc3n1)C(=O)N[C@@H](C)C(=O)N2C` [echinomycin] here?
A: [(A/T)CGT]/[ACG(A/T)]

Q: With `Cn1cc(NC(=O)c2cc(NC(=O)c3cc(NC=O)cn3C)cn2C)cc1C(=O)NCCC(=N)N` [distamycin, Distamycin A] as the compound, how does the “Ave. rank (actual) of the 18 sequences of the second consensus sequence” value [1] read?
A: 29

Q: What about the “Average rank (actual) of the 16 sequences of the first consensus sequence” value [1] of the same compound?
A: 17

Q: And the “overall sequence preference in the screen of all 256 sequences” value [1]?
A: preference for binding AT-rich sequences

Q: And the “second consensus sequence, favoured bases and order” value [1]?
A: A/G/C and G/C/A and G/C and A>G=C and C>A=G and G=C

Q: And the “effect on DNA:protein complexes / free probe” value [2]?
A: most of the DNA:protein complexes are intact (top band) with free probe appearing in the UL9 polyT and UL9 polyA lanes, and some free probe appearing in the UL9 ATAT lane; also recorded: free probe can be seen in the UL9 polyT and UL9 polyA lanes; also recorded: the DNA:protein in the polyT, UL9 polyA and UL9 ATAT lanes are near completely disrupted while some DNA:protein complexes in the other lanes persist

Q: What about the “test sequences at which UL9 binding” value [2] of the same compound?
A: preferentially disrupts binding to the test sequences UL9 polyT, UL9 polyA and, to a lesser extent, UL9ATAT; also recorded: preferentially disrupts binding to UL9 polyT, UL9 polyA and UL9 ATAT

Q: What about the published binding constant (DNA) of the same compound?
A: about 2×10^5 M^−1

Q: What about the published binding constant (DNA; listed as dista) of the same compound?
A: 200000 M⁻¹

Q: And the “KA (binding to DNA)” value (DNA; literature)?
A: 200000 M⁻¹

Q: What about the “reported preferred DNA binding sequence” value (DNA; literature) of the same compound?
A: non-alternating AT-rich sequences

Q: Which “effect on DNA:protein complexes” value [2] does the source give for `COc1cccc2c1C(=O)c1c(O)c3c(c(O)c1C2=O)C[C@@](O)(C(=O)CO)C[C@@H]3O[C@H]1C[C@H](N)[C@H](O)[C@H](C)O1` [Doxorubicin] here?
A: most DNA:protein complexes are nearly completely disrupted, with UL9 polyT and UL9ATAT showing some DNA still complexed with protein

Q: What about the “effect on UL9 binding to the screening sequence” value [2] of the same compound?
A: strongly affected; also recorded: more mildly affected; also recorded: effects similar to those observed at 15 μM were also observed

Q: And the “test sequences at which UL9 binding” value [2]?
A: preferentially disrupts the binding of UL9 to the oligonucleotides UL9 polyT, UL9 GGGC, oriEco2, and oriEco3

Q: For calicheamicin, which “reported preferred DNA binding sequence” value (DNA; literature) is on record?
A: TCCT/AGGA
